In the NIST ThermoML archive (doi:10.1021/je025630q):
Numbers after ± are expanded uncertainties.

Test: compressibility factor (dimensionless); xn = mol fraction of the nth substance listed
Conditions: Gas, Burnett expansion method

`CF` [fluoromethane] + O=C=O showed a compressibility factor (303.15 K, 126.9 kPa, x2 = 0.283) of 0.995 ± 0.0001, a compressibility factor (303.15 K, 139.3 kPa, x2 = 0.402) of 0.9955 ± 0.0001 and a compressibility factor (303.15 K, 155.9 kPa, x2 = 0.59) of 0.9951 ± 0.0001. The compressibility factor (303.15 K, 174.7 kPa, x2 = 0.798) was 0.9946 ± 0.0001, the compressibility factor (303.15 K, 188.9 kPa, x2 = 0.283) was 0.9896 ± 0.0001 and the compressibility factor (303.15 K, 207.3 kPa, x2 = 0.402) was 0.9896 ± 0.0001. The compressibility factor (303.15 K, 231.9 kPa, x2 = 0.59) was 0.9892 ± 0.0001, the compressibility factor (303.15 K, 259.9 kPa, x2 = 0.798) was 0.9886 ± 0.0001 and the compressibility factor (303.15 K, 280.7 kPa, x2 = 0.283) was 0.9823 ± 0.0001. The compressibility factor (303.15 K, 308 kPa, x2 = 0.402) was 0.9821 ± 0.0001, the compressibility factor (303.15 K, 344.5 kPa, x2 = 0.59) was 0.9815 ± 0.0001 and the compressibility factor (303.15 K, 386 kPa, x2 = 0.798) was 0.9807 ± 0.0001. It also gave a compressibility factor (303.15 K, 415.8 kPa, x2 = 0.283) of 0.9721 ± 0.0001, a compressibility factor (303.15 K, 456.1 kPa, x2 = 0.402) of 0.9715 ± 0.0001 and a compressibility factor (303.15 K, 510 kPa, x2 = 0.59) of 0.9708 ± 0.0001. It also gave a compressibility factor (303.15 K, 571.5 kPa, x2 = 0.798) of 0.97 ± 0.0001, a compressibility factor (303.15 K, 613.1 kPa, x2 = 0.283) of 0.9576 ± 0.0001 and a compressibility factor (303.15 K, 672.2 kPa, x2 = 0.402) of 0.9564 ± 0.0001. The compressibility factor (303.15 K, 751.4 kPa, x2 = 0.59) was 0.9555 ± 0.0001, the compressibility factor (303.15 K, 842 kPa, x2 = 0.798) was 0.9547 ± 0.0001 and the compressibility factor (303.15 K, 897.8 kPa, x2 = 0.283) was 0.9368 ± 0.0001. It also gave a compressibility factor (303.15 K, 983.5 kPa, x2 = 0.402) of 0.9349 ± 0.0001, a compressibility factor (303.15 K, 1099.1 kPa, x2 = 0.59) of 0.9337 ± 0.0001 and a compressibility factor (303.15 K, 1231.1 kPa, x2 = 0.798) of 0.9326 ± 0.0001. It also gave a compressibility factor (303.15 K, 1300.8 kPa, x2 = 0.283) of 0.9066 ± 0.0001, a compressibility factor (303.15 K, 1423.2 kPa, x2 = 0.402) of 0.9038 ± 0.0001 and a compressibility factor (303.15 K, 1589.6 kPa, x2 = 0.59) of 0.9021 ± 0.0001. The compressibility factor (303.15 K, 1779.6 kPa, x2 = 0.798) was 0.9006 ± 0.0001, the compressibility factor (303.15 K, 1854.5 kPa, x2 = 0.283) was 0.8635 ± 0.0001 and the compressibility factor (303.15 K, 2025.1 kPa, x2 = 0.402) was 0.8591 ± 0.0001. For the same compound, the compressibility factor (303.15 K, 2259.3 kPa, x2 = 0.59) was 0.8566 ± 0.0001, the compressibility factor (303.15 K, 2527 kPa, x2 = 0.798) was 0.8543 ± 0.0001 and the compressibility factor (303.15 K, 2578.9 kPa, x2 = 0.283) was 0.8022 ± 0.0001. The compressibility factor (303.15 K, 2808.4 kPa, x2 = 0.402) was 0.7959 ± 0.0001, the compressibility factor (303.15 K, 3127.5 kPa, x2 = 0.59) was 0.7921 ± 0.0001 and the compressibility factor (303.15 K, 3455.9 kPa, x2 = 0.283) was 0.7182 ± 0.0001. The compressibility factor (303.15 K, 3491.8 kPa, x2 = 0.798) was 0.7886 ± 0.0001, the compressibility factor (303.15 K, 3745.5 kPa, x2 = 0.402) was 0.7091 ± 0.0001 and the compressibility factor (303.15 K, 4156.5 kPa, x2 = 0.59) was 0.7033 ± 0.0001. For the same compound, the compressibility factor (303.15 K, 4628.3 kPa, x2 = 0.798) was 0.6983 ± 0.0001, the compressibility factor (313.15 K, 128.9 kPa, x2 = 0.206) was 0.9928 ± 0.0001 and the compressibility factor (313.15 K, 139.2 kPa, x2 = 0.778) was 1 ± 0.0001. It also gave a compressibility factor (313.15 K, 156.2 kPa, x2 = 0.593) of 0.9925 ± 0.0001, a compressibility factor (313.15 K, 175 kPa, x2 = 0.408) of 0.9921 ± 0.0001 and a compressibility factor (313.15 K, 192.3 kPa, x2 = 0.206) of 0.9894 ± 0.0001. For the same compound, the compressibility factor (313.15 K, 207.3 kPa, x2 = 0.778) was 0.9946 ± 0.0001, the compressibility factor (313.15 K, 233 kPa, x2 = 0.593) was 0.989 ± 0.0001 and the compressibility factor (313.15 K, 260.7 kPa, x2 = 0.408) was 0.9874 ± 0.0001. It also gave a compressibility factor (313.15 K, 286.2 kPa, x2 = 0.206) of 0.9837 ± 0.0001, a compressibility factor (313.15 K, 308.2 kPa, x2 = 0.778) of 0.9881 ± 0.0001 and a compressibility factor (313.15 K, 346.7 kPa, x2 = 0.593) of 0.9829 ± 0.0001. The compressibility factor (313.15 K, 387.2 kPa, x2 = 0.408) was 0.9799 ± 0.0001, the compressibility factor (313.15 K, 424.5 kPa, x2 = 0.206) was 0.9746 ± 0.0001 and the compressibility factor (313.15 K, 457.5 kPa, x2 = 0.778) was 0.9798 ± 0.0001. The compressibility factor (313.15 K, 514.3 kPa, x2 = 0.593) was 0.974 ± 0.0001, the compressibility factor (313.15 K, 573.2 kPa, x2 = 0.408) was 0.9689 ± 0.0001 and the compressibility factor (313.15 K, 626.8 kPa, x2 = 0.206) was 0.9613 ± 0.0001. It also gave a compressibility factor (313.15 K, 676.8 kPa, x2 = 0.778) of 0.9683 ± 0.0001, a compressibility factor (313.15 K, 759.4 kPa, x2 = 0.593) of 0.9608 ± 0.0001 and a compressibility factor (313.15 K, 843.8 kPa, x2 = 0.408) of 0.9529 ± 0.0001. For the same compound, the compressibility factor (313.15 K, 919.1 kPa, x2 = 0.206) was 0.9417 ± 0.0001, the compressibility factor (313.15 K, 996 kPa, x2 = 0.778) was 0.9519 ± 0.0001 and the compressibility factor (313.15 K, 1113.9 kPa, x2 = 0.593) was 0.9415 ± 0.0001. The compressibility factor (313.15 K, 1231.8 kPa, x2 = 0.408) was 0.9293 ± 0.0001, the compressibility factor (313.15 K, 1334.2 kPa, x2 = 0.206) was 0.9132 ± 0.0001 and the compressibility factor (313.15 K, 1453.8 kPa, x2 = 0.778) was 0.9282 ± 0.0001. For the same compound, the compressibility factor (313.15 K, 1617 kPa, x2 = 0.593) was 0.913 ± 0.0001, the compressibility factor (313.15 K, 1775.9 kPa, x2 = 0.408) was 0.895 ± 0.0001 and the compressibility factor (313.15 K, 1907.6 kPa, x2 = 0.206) was 0.8722 ± 0.0001. For the same compound, the compressibility factor (313.15 K, 2096.6 kPa, x2 = 0.778) was 0.8943 ± 0.0001, the compressibility factor (313.15 K, 2311.9 kPa, x2 = 0.593) was 0.8721 ± 0.0001 and the compressibility factor (313.15 K, 2512.5 kPa, x2 = 0.408) was 0.846 ± 0.0001. The compressibility factor (313.15 K, 2665.8 kPa, x2 = 0.206) was 0.8143 ± 0.0001, the compressibility factor (313.15 K, 2967.7 kPa, x2 = 0.778) was 0.8457 ± 0.0001 and the compressibility factor (313.15 K, 3229.5 kPa, x2 = 0.593) was 0.8138 ± 0.0001. The compressibility factor (313.15 K, 3455.2 kPa, x2 = 0.408) was 0.7772 ± 0.0001, the compressibility factor (313.15 K, 3600.8 kPa, x2 = 0.206) was 0.7348 ± 0.0001 and the compressibility factor (313.15 K, 4083.3 kPa, x2 = 0.778) was 0.7773 ± 0.0001. For the same compound, the compressibility factor (313.15 K, 4357.3 kPa, x2 = 0.593) was 0.7335 ± 0.0001, the compressibility factor (313.15 K, 4556.4 kPa, x2 = 0.408) was 0.6847 ± 0.0001 and the compressibility factor (313.15 K, 4622.8 kPa, x2 = 0.206) was 0.6302 ± 0.0001. For the same compound, the compressibility factor (313.15 K, 5382.3 kPa, x2 = 0.778) was 0.6845 ± 0.0001, the compressibility factor (313.15 K, 5581 kPa, x2 = 0.593) was 0.6277 ± 0.0001 and the compressibility factor (313.15 K, 5645.6 kPa, x2 = 0.408) was 0.5668 ± 0.0001. For the same compound, the compressibility factor (323.15 K, 133.2 kPa, x2 = 0.378) was 0.9948 ± 0.0001, the compressibility factor (323.15 K, 137 kPa, x2 = 0.791) was 0.995 ± 0.0001 and the compressibility factor (323.15 K, 142.6 kPa, x2 = 0.619) was 0.9967 ± 0.0001. For the same compound, the compressibility factor (323.15 K, 156.6 kPa, x2 = 0.189) was 0.9918 ± 0.0001, the compressibility factor (323.15 K, 198.7 kPa, x2 = 0.378) was 0.9914 ± 0.0001 and the compressibility factor (323.15 K, 204.4 kPa, x2 = 0.791) was 0.9921 ± 0.0001. For the same compound, the compressibility factor (323.15 K, 212.6 kPa, x2 = 0.619) was 0.9926 ± 0.0001, the compressibility factor (323.15 K, 233.4 kPa, x2 = 0.189) was 0.9875 ± 0.0001 and the compressibility factor (323.15 K, 295.9 kPa, x2 = 0.378) was 0.986 ± 0.0001. For the same compound, the compressibility factor (323.15 K, 304.7 kPa, x2 = 0.791) was 0.9877 ± 0.0001, the compressibility factor (323.15 K, 316.4 kPa, x2 = 0.619) was 0.9871 ± 0.0001 and the compressibility factor (323.15 K, 347.1 kPa, x2 = 0.189) was 0.9809 ± 0.0001. The compressibility factor (323.15 K, 439.4 kPa, x2 = 0.378) was 0.9783 ± 0.0001, the compressibility factor (323.15 K, 453 kPa, x2 = 0.791) was 0.9812 ± 0.0001 and the compressibility factor (323.15 K, 469.9 kPa, x2 = 0.619) was 0.9793 ± 0.0001. The compressibility factor (323.15 K, 514.3 kPa, x2 = 0.189) was 0.971 ± 0.0001, the compressibility factor (323.15 K, 650.1 kPa, x2 = 0.378) was 0.967 ± 0.0001 and the compressibility factor (323.15 K, 671.5 kPa, x2 = 0.791) was 0.9715 ± 0.0001. It also gave a compressibility factor (323.15 K, 695.4 kPa, x2 = 0.619) of 0.9682 ± 0.0001, a compressibility factor (323.15 K, 758.3 kPa, x2 = 0.189) of 0.9564 ± 0.0001 and a compressibility factor (323.15 K, 956.3 kPa, x2 = 0.378) of 0.9502 ± 0.0001. The compressibility factor (323.15 K, 990.6 kPa, x2 = 0.791) was 0.9574 ± 0.0001.
